Bridge positions count the residues as written; N and C are the ends. Peptide text beside a SMILES is read from it.
Biological target: T1, Human VEGF165 (Homo sapiens, UniProt P15692)
T1 construct: purchased Biosource
T1 sequence (P15692 27-191 isoform P15692-4): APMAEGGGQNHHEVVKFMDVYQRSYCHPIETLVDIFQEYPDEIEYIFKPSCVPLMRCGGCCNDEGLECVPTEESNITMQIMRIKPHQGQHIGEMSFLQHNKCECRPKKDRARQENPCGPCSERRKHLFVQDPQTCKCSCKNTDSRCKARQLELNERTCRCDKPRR
Experiment: BIAcore binding analysis of VEGF-binding peptides (surface plasmon resonance)
Conditions: 1:1 Langmuir binding; 1000 RU VEGF, 850 RU TNFα
Method: FIG. 3 provides results of a BIACORE binding analysis of VEGF binding peptides. Binding curves were obtained as described in the Examples. Data were fit to a two state reaction model with conformation change: Analyte (A) binds to ligand (B) to form complex AB.
In this Example, experiments conducted to assess the affinities of the peptides for VEGF are described. Affinities of the peptides for VEGF were measured using a BIAcore™-3000 surface plasmon resonance system (Biacore). A CM5 sensor chip was conditioned with 50 mM NaOH, 0.1% HCl, 0.1% SDS, and 0.08% H3PO4, and activated for covalent coupling of VEGF using N-ethyl-N′-(3-dimethylaminopropyl)-carbodiimide hydrochloride (EDC) and N-hydroxysuccinimide (NHS) according to the supplier's instructions (Biacore). Human VEGF165 (Biosource) was diluted to 5 μg/ml in 20 mM sodium acetate, pH 4.8 and injected at a flow rate of 2 μl/min to achieve approximately 1000 to 6000 response units (RU) of coupled protein. TNF-alpha (human TNF-alpha, Biosource, Int., Camarillo, Calif.) was similarly coupled to the CM5 sensor chip to approximately 850 to 3500 RU in the reference lane. A solution of 1 M ethanolamine was injected as a blocking agent. In some experiments, an additional solution of EDC and NHS were injected to improve baseline stability and a solution of 1 M ethanolamine injected as a blocking agent. The reference lane was activated with EDC and NHS and blocked with ethanolamine.
Peptides were synthesized using standard FMOC chemistry, purified by reverse phase HPLC to >95% purity (SynPep), and stored at 10 mg/mL in DMSO. For kinetic measurements, twofold serial diluted peptides in HBS-EP buffer, 0.01 M HEPES pH 7.4, 0.15 M NaCl, 3 mM EDTA, 0.005% Surfactant P20 (Biacore), were injected at 25° C. at a flow rate of 20 μL/min. Two-fold serial diluted DMSO samples and buffer samples were also injected for background subtraction. Kinetic parameters were calculated using BIAevaluation 3.1 software.

Kd: 223 nM
kd1: 0.167 s⁻¹
Structure (SMILES): CC[C@H](C)[C@@H]1NC(=O)[C@H](CC(=O)O)NC(=O)[C@@H](NC(=O)[C@H](CC(N)=O)NC(=O)[C@@H]2CCCN2C(=O)[C@H](CCC(=O)O)NC(=O)[C@@H](N)C(C)C)CSSC[C@@H](C(=O)N[C@@H](Cc2ccccc2)C(=O)N[C@@H](CCC(=O)O)C(=O)N[C@@H](CCCNC(=N)N)C(=O)N[C@@H](CC(C)C)C(N)=O)NC(=O)[C@H](CCC(=O)O)NC(=O)[C@H](Cc2c[nH]c3ccccc23)NC(=O)[C@H](CCC(=O)O)NC(=O)[C@H](Cc2c[nH]c3ccccc23)NC(=O)[C@H](CCSC)NC(=O)[C@H](C(C)C)NC(=O)[C@H](Cc2c[nH]cn2)NC1=O [v114, reference compound] (H-VEPNCDIHVMWEWECFERL-NH2; disulfide 5-15; N-terminus and C-terminus assumed)

Reference: US9084734B2, “Peptide personal care compositions and methods for their use” (Danisco US Inc., priority 2005, dated 2015)
